# Experimental data published in ChEMBL document CHEMBL3885881, “DrugMatrix”.
# Species on record: Rattus norvegicus
# Experiment: DrugMatrix - Regimen: Daily Repeat
# Type: toxicity, organism-based, Sprague-Dawley
# Set-up: regimen Daily Repeat, gender Male, age 6-8 weeks
# Settings: in vivo, po, route oral GAVAGE, vehicle .5 % CMC; for ABSOLUTE BASOPHIL / ABSOLUTE EOSINOPHIL / ABSOLUTE LYMPHOCYTE / ABSOLUTE MONOCYTE / ABSOLUTE SEGMENTED NEUTROPHIL / BASOPHIL / EOSINOPHIL / ERYTHROCYTE COUNT / HEMATOCRIT / HEMOGLOBIN / LEUKOCYTE COUNT / LYMPHOCYTE / MEAN CORPUSCULAR HEMOGLOBIN / MEAN CORPUSCULAR HEMOGLOBIN CONCENTRATION / MEAN CORPUSCULAR VOLUME / MONOCYTE / NEUTROPHIL / NUCLEATED RED BLOOD CELLS / PLATELET COUNT: tissue Blood; for ALANINE AMINOTRANSFERASE / ALBUMIN / ALKALINE PHOSPHATASE / ASPARTATE AMINOTRANSFERASE / BLOOD UREA NITROGEN / CARBON DIOXIDE / CHLORIDE / CHOLESTEROL / CREATINE PHOSPHOKINASE / CREATININE / GLUCOSE / LACTATE DEHYDROGENASE / LIPASE / PHOSPHORUS / POTASSIUM / SODIUM / TOTAL BILIRUBIN / TOTAL PROTEIN / URIC ACID: tissue Plasma
# [1] = 0 mg/kg, 72 h, dose level Control, time 3 day
# [2] = 0 mg/kg, 120 h, dose level Control, time 5 day
# [3] = 50 mg/kg, 72 h, dose level Low, time 3 day
structure (smiles),measurement,setting,value
CN(C)[C@@H]1C(O)=C(C(N)=O)C(=O)[C@@]2(O)C(O)=C3C(=O)c4c(O)ccc(Cl)c4[C@@](C)(O)[C@H]3C[C@@H]12 [CHLORTETRACYCLINE],ABSOLUTE BASOPHIL,[1],0 CELLS/uL
same,ABSOLUTE EOSINOPHIL,[1],32.5 CELLS/uL
same,ABSOLUTE LYMPHOCYTE,[1],13494.17 CELLS/uL
same,ABSOLUTE MONOCYTE,[1],474 CELLS/uL
same,ABSOLUTE SEGMENTED NEUTROPHIL,[1],1932.67 CELLS/uL
same,BASOPHIL,[1],0%
same,EOSINOPHIL,[1],0.17%
same,ERYTHROCYTE COUNT,[1],5.45 x10E6/uL
same,HEMATOCRIT,[1],34.32%
same,HEMOGLOBIN,[1],13.82 G/DL
same,LEUKOCYTE COUNT,[1],15.93 x10E3/uL
same,LYMPHOCYTE,[1],84.83%
same,MEAN CORPUSCULAR HEMOGLOBIN,[1],25.38 pg
same,MEAN CORPUSCULAR HEMOGLOBIN CONCENTRATION,[1],40.27 G/DL
same,MEAN CORPUSCULAR VOLUME,[1],63.05 fL
same,MONOCYTE,[1],3%
same,NEUTROPHIL,[1],12%
same,NUCLEATED RED BLOOD CELLS,[1],0.67 /100WBC
same,PLATELET COUNT,[1],1188.5 x10E3/uL
same,ALANINE AMINOTRANSFERASE,[1],54.83 u/L
same,ALBUMIN,[1],4.22 G/DL
same,ALKALINE PHOSPHATASE,[1],427.67 u/L
same,ASPARTATE AMINOTRANSFERASE,[1],86.5 u/L
same,BLOOD UREA NITROGEN,[1],15.33 mg/dL
same,CARBON DIOXIDE,[1],24.83 mmol/L
same,CHLORIDE,[1],102.33 MEQ/L
same,CHOLESTEROL,[1],71.67 mg/dL
same,CREATINE PHOSPHOKINASE,[1],442.5 u/L
same,CREATININE,[1],0.19 mg/dL
same,GLUCOSE,[1],160.67 mg/dL
same,LACTATE DEHYDROGENASE,[1],236.5 u/L
same,LIPASE,[1],9 u/L
same,PHOSPHORUS,[1],11.97 mg/dL
same,POTASSIUM,[1],6.2 MEQ/L
same,SODIUM,[1],142.85 MEQ/L
same,TOTAL BILIRUBIN,[1],0.2 mg/dL
same,TOTAL PROTEIN,[1],5.8 G/DL
same,URIC ACID,[1],1.3 mg/dL
same,ABSOLUTE BASOPHIL,[2],0 CELLS/uL
same,ABSOLUTE EOSINOPHIL,[2],114.5 CELLS/uL
same,ABSOLUTE LYMPHOCYTE,[2],14614 CELLS/uL
same,ABSOLUTE MONOCYTE,[2],173 CELLS/uL
same,ABSOLUTE SEGMENTED NEUTROPHIL,[2],1048.5 CELLS/uL
same,BASOPHIL,[2],0%
same,EOSINOPHIL,[2],0.67%
same,ERYTHROCYTE COUNT,[2],5.66 x10E6/uL
same,HEMATOCRIT,[2],35.52%
same,HEMOGLOBIN,[2],14.27 G/DL
same,LEUKOCYTE COUNT,[2],15.95 x10E3/uL
same,LYMPHOCYTE,[2],91.33%
same,MEAN CORPUSCULAR HEMOGLOBIN,[2],25.23 pg
same,MEAN CORPUSCULAR HEMOGLOBIN CONCENTRATION,[2],40.2 G/DL
same,MEAN CORPUSCULAR VOLUME,[2],62.7 fL
same,MONOCYTE,[2],1.17%
same,NEUTROPHIL,[2],6.83%
same,NUCLEATED RED BLOOD CELLS,[2],0.33 /100WBC
same,PLATELET COUNT,[2],1229 x10E3/uL
same,ALANINE AMINOTRANSFERASE,[2],58.67 u/L
same,ALBUMIN,[2],4.32 G/DL
same,ALKALINE PHOSPHATASE,[2],382.5 u/L
same,ASPARTATE AMINOTRANSFERASE,[2],81.67 u/L
same,BLOOD UREA NITROGEN,[2],17.67 mg/dL
same,CARBON DIOXIDE,[2],27.17 mmol/L
same,CHLORIDE,[2],102.33 MEQ/L
same,CHOLESTEROL,[2],63.67 mg/dL
same,CREATINE PHOSPHOKINASE,[2],227.67 u/L
same,CREATININE,[2],0.23 mg/dL
same,GLUCOSE,[2],155.33 mg/dL
same,LACTATE DEHYDROGENASE,[2],146.5 u/L
same,LIPASE,[2],10.67 u/L
same,PHOSPHORUS,[2],11.93 mg/dL
same,POTASSIUM,[2],6.85 MEQ/L
same,SODIUM,[2],143.95 MEQ/L
same,TOTAL BILIRUBIN,[2],0.18 mg/dL
same,TOTAL PROTEIN,[2],6.02 G/DL
same,URIC ACID,[2],1.63 mg/dL
same,ABSOLUTE BASOPHIL,[3],0 CELLS/uL
same,ABSOLUTE EOSINOPHIL,[3],126.67 CELLS/uL
same,ABSOLUTE LYMPHOCYTE,[3],10511.33 CELLS/uL
same,ABSOLUTE MONOCYTE,[3],344.33 CELLS/uL
same,ABSOLUTE SEGMENTED NEUTROPHIL,[3],817.67 CELLS/uL
same,BASOPHIL,[3],0%
same,EOSINOPHIL,[3],1%
same,ERYTHROCYTE COUNT,[3],5.49 x10E6/uL
same,HEMATOCRIT,[3],34.47%
same,HEMOGLOBIN,[3],13.47 G/DL
same,LEUKOCYTE COUNT,[3],11.8 x10E3/uL
same,LYMPHOCYTE,[3],89%
same,MEAN CORPUSCULAR HEMOGLOBIN,[3],24.57 pg
same,MEAN CORPUSCULAR HEMOGLOBIN CONCENTRATION,[3],39.13 G/DL
same,MEAN CORPUSCULAR VOLUME,[3],62.87 fL
same,MONOCYTE,[3],3%
same,NEUTROPHIL,[3],7%
same,NUCLEATED RED BLOOD CELLS,[3],0 /100WBC
same,PLATELET COUNT,[3],1083.33 x10E3/uL
same,ALANINE AMINOTRANSFERASE,[3],50.33 u/L
same,ALBUMIN,[3],4.07 G/DL
same,ALKALINE PHOSPHATASE,[3],403.67 u/L
same,ASPARTATE AMINOTRANSFERASE,[3],84.67 u/L
same,BLOOD UREA NITROGEN,[3],16.67 mg/dL
same,CARBON DIOXIDE,[3],26 mmol/L
same,CHLORIDE,[3],103.67 MEQ/L
same,CHOLESTEROL,[3],73.33 mg/dL
same,CREATINE PHOSPHOKINASE,[3],273.67 u/L
same,CREATININE,[3],0.15 mg/dL
same,GLUCOSE,[3],157.67 mg/dL
same,LACTATE DEHYDROGENASE,[3],157.33 u/L
same,LIPASE,[3],9.33 u/L
same,PHOSPHORUS,[3],12.13 mg/dL
same,POTASSIUM,[3],6.6 MEQ/L
same,SODIUM,[3],146.1 MEQ/L
same,TOTAL BILIRUBIN,[3],0.2 mg/dL
same,TOTAL PROTEIN,[3],5.67 G/DL
same,URIC ACID,[3],1.77 mg/dL
